Source: US9512396B2, “In vitro microphysiological system for high throughput 3D tissue organization and biological function” (The Trustees of the University of Pennsylvania, priority 2011, dated 2016)
Where two headings read alike, the source gives them in different places.

Tested on: cardiac microtissues (CMTs)
Assay type: cell-based
Conditions: measured after 1 h
Protocol: In a first example, cardiomyocytes were isolated from 0-1 day neonatal Sprague Dawley rat pups by a Trypsin digestion protocol as previously described. The resulting cell population was immediately subjected to CMT generation. CMTs were cultured in high glucose DMEM (Mediatech, Inc.) containing 10% horse serum (Invitrogen), 2% chick embryo extract (Charles River Laboratories International, Inc.), 4 mM L-glutamine, 1 mM sodium pyruvate, 100 units/mL penicillin, and […] streptomycin (all from Invitrogen). Cell culture medium was changed every day. Stock solution of Isoproterenol (Sigma-Aldrich) of 10 mM was made in MilliQ water and stock solution of Digoxin (GlaxoSmithKline) of 10 mM was made in DMSO. Calcium staining was obtained by incubating CMTs for 1 h with the acetoxymethyl ester of fluo-3 (fluo-3/(AM), Invitrogen) as a fluorescent dye at 2 μM in PBS with 0.02% of Pluronic F127 (BASF).
Before cell seeding, the PDMS templates were sterilized in 70% ethanol followed by UV irradiation for 15 min and treated with 0.2% Pluronic F127 for 60 min to reduce cell adhesion. A reconstitution mixture, consisting of 1 mg/mL or 2.5 mg/mL liquid neutralized collagen I from rat tail (BO Biosciences) and 0.5 mg/mL fibrinogen from bovine plasma (Sigma-Aldrich), was then added to the surface of the substrates on ice and templates were degassed under vacuum to remove bubbles in the liquid. A cooled suspension of half a million cells within reconstitution mixture was then added to the substrate and the entire assembly was centrifuged to drive the cells into the micropatterned wells, resulting in around 500 cells per well. Excess collagen/fibrinogen and cells were removed by de-wetting the surface of the substrate before incubating at 37° C. to induce collagen polymerization. The appropriate media was then added to each substrate. By using a live/dead cell viability assay (Invitrogen), cell viability over time was estimated.
For quantifying microtissue forces, brightfield and fluorescence images were taken at 20 Hz within each template, using a Photometrics Evolve EMCCOcamera (Photometrics), and an A-Plan 10× objective on a Nikon Eclipse Ti (Nikon Instruments Inc.) equipped with a live cell incubator. Only tissues that were uniformly anchored to the tips of the cantilevers were included in the analysis. The displacement of fluorescent micro-beads at the top of the cantilevers was then tracked with using the SpotTracker plug-in in ImageJ (National Institutes of Health).
In one example, it was also examined whether CMTs responded appropriately to two cardiac compounds, isoproterenol and digoxin. To study the dose-response of the CMTs to these compounds, their concentrations were varied from 1 nM to 10 μM and the dynamic stress and the spontaneous frequency of CMTs were measured after 1 h (FIG. 13). Isoproterenol can be used as a β-adrenergic agonist with a positive chronotropic effect whereas digoxin is a cardiac glycoside that inhibits Na+/K+-ATPase (sodium pump), activates sarcoplasmic reticulum Ca2+-release channels and induces positive inotropic effects.

Row | SMILES | maximal stress increase (1 μM) [%] | chronotropic effect (spontaneous frequency) (10 μM) | inotropic effect (dynamic stress) (10 μM) | spontaneous frequency (10 μM) | inotropic response (dynamic stress) (between 1 nM and 1 μM) | effect on dynamic stress and spontaneous frequency of CMTs (1 nM) | change of spontaneous frequency (1 μM) | change of spontaneous frequency (10 μM) | inotropic effect (contractility, dynamic stress) (1 and 10 nM (so in the source)) | chronotropic action (spontaneous frequency) (1 and 10 μM) | inotropic action (contractility, dynamic stress) (10 and 100 nM)
1 | C[C@H]1O[C@@H](O[C@H]2[C@@H](O)C[C@H](O[C@H]3[C@@H](O)C[C@H](O[C@H]4CC[C@@]5(C)[C@H](CC[C@@H]6[C@@H]5C[C@@H](O)[C@]5(C)[C@@H](C7=CC(=O)OC7)CC[C@]65O)C4)O[C@@H]3C)O[C@@H]2C)C[C@H](O)[C@@H]1O [Digoxin] | 22±4 | strong negative chronotropic effect | almost no inotropic effect | under 0.04±0.01 Hz | positive inotropic response | – | – | – | – | – | –
2 | CC(C)NCC(O)c1ccc(O)c(O)c1 (centres unmarked) [Isoproterenol] | – | – | – | – | – | no observable effect | doubling | tripling | slight negative inotropic effect | positive chronotropic action | slight positive inotropic action
